Test system: T1, GCaMP5-expressing T. gondii
T1 construct: whole extracellular parasites expressing GCaMP5 Ca2+ sensor
Set-up: species or system GCaMP5-expressing Toxoplasma gondii, extracellular; GCaMP5 fluorescence (cytosolic Ca2+) after 100 uM zaprinast in compound-pretreated extracellular parasites, background-subtracted, relative to zaprinast alone
Conditions: 100 uM zaprinast stimulation; 10 min pretreatment; mean of two replicates; 0.23 h
Procedure, shortened: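 Extracellular GCaMP5-expressing parasites in Ringer's solution were pretreated with compounds (single 10 μM dose, two biological replicates) for 10 min, then stimulated with 100 μM zaprinast at 37 °C for 4 min. Fluorescence read at 485/525 nm, basal subtracted, expressed as fold change relative to zaprinast-only parasites.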

COc1ccc2[nH]c3c4[nH]c5ccc(OC)cc5c4c4c(c3c2c1)C(=O)NC4=O [GW296115X]
fold change in fluorescence relative to zaprinast alone: 0.5167

Cc1cc(N2Cc3ccccc3C2)nc(Nc2ccc(S(=O)(=O)N3CCOCC3)cc2)n1 [GSK1669917A]
fold change in fluorescence relative to zaprinast alone: 1.107

NC(=O)c1sc(-n2cnc3ccc(C(F)(F)F)cc32)cc1OCc1ccccc1Br [GW853606X]
fold change in fluorescence relative to zaprinast alone: 1.175

NS(=O)(=O)CCc1cccc(Nc2nccc(-c3c(-c4cccc(NC(=O)c5c(F)cccc5F)c4)nn4ccccc34)n2)c1 [GSK336735A]
fold change in fluorescence relative to zaprinast alone: 1.201

Fc1cc(Cl)ccc1Nc1ccnc2cc(-c3ccc(CN4CCSCC4)o3)ccc12 [GW560106X]
fold change in fluorescence relative to zaprinast alone: 0.6773

COc1cccc(COc2cc(-n3cnc4ccccc43)sc2C(N)=O)c1 [GW804482X]
fold change in fluorescence relative to zaprinast alone: 1.105

CS(=O)(=O)CCNCc1ccc(-c2ccc3ncnc(Nc4ccc(OCc5ccccc5)c(C(F)(F)F)c4)c3c2)o1 [GW574782A]
fold change in fluorescence relative to zaprinast alone: 0.7605

CC1=C(C(=O)Nc2ccc3[nH]ncc3c2)C(c2ccc(Cl)c(Cl)c2)CC(=O)N1 (centres unmarked) [GSK299115A]
fold change in fluorescence relative to zaprinast alone: 1.214

Cc1ccc(NC(=O)c2ccnc(N3CCCCC3)c2)cc1-c1ccc(C(=O)NCC2CC2)cc1 [GW775610X]
fold change in fluorescence relative to zaprinast alone: 1.448

O=C(NCc1cccs1)c1cc(C(=O)c2c(Cl)cccc2Cl)c[nH]1 [GW823670X]
fold change in fluorescence relative to zaprinast alone: 1.033

O=c1[nH]ccc2nc(N[C@@H]3CCCNC3)nc(Nc3ccc(S(=O)(=O)N4CCOCC4)cc3)c12 [GSK2177277A]
fold change in fluorescence relative to zaprinast alone: 1.049

CCn1c(-c2nonc2N)nc2c(C#CC(C)(C)O)nc(OCCN)cc21 [GSK902056A]
fold change in fluorescence relative to zaprinast alone: 1.153

CSc1cccc2c(-c3ccncn3)c(-c3ccc(F)cc3)nn12 [GW514786X]
fold change in fluorescence relative to zaprinast alone: 0.1155

c1cnn2ncc(-c3ccnc(Nc4ccc5c(c4)OCCO5)n3)c2c1 [GW806290X]
fold change in fluorescence relative to zaprinast alone: -0.04929

CS(=O)(=O)CCNCc1nc(-c2ccc3ncnc(Nc4ccc(OCc5cccc(C(F)(F)F)c5)cc4)c3c2)cs1 [GW569530A]
fold change in fluorescence relative to zaprinast alone: 1.148

Nc1ncc(-c2cn[nH]c2)c2scc(-c3ccc4c(c3)CCN4C(=O)Cc3ccccc3)c12 [GSK2593067A]
fold change in fluorescence relative to zaprinast alone: 1.414

Cc1cc(NCC(c2ccccc2)c2ccccc2)nc(NCc2ccc(C(F)(F)F)cc2)n1 [GW497681X]
fold change in fluorescence relative to zaprinast alone: 1.268

CC(=O)Nc1ccc(COc2ccc(Nc3ccnc4cc(-c5ccccn5)ccc34)cc2)cc1 [GW440148A]
fold change in fluorescence relative to zaprinast alone: 1.657

Cn1cncc1-c1ccc2ncnc(Nc3ccc(OCc4ccccc4)cc3)c2c1 [GW320571X]
fold change in fluorescence relative to zaprinast alone: 0.8423

Cc1ccc(CC(=O)N2CCc3cc(-c4cn(C)c5ncnc(N)c45)ccc32)cc1 [GSK2634758A]
fold change in fluorescence relative to zaprinast alone: 1.068

Cc1ccc(C(=O)NC2CC2)cc1-c1ccc2[nH]ncc2c1 [GW820759X]
fold change in fluorescence relative to zaprinast alone: 1.265

CCn1c(-c2c(N)noc2C)nc2cnccc21 [SB-737856]
fold change in fluorescence relative to zaprinast alone: 0.9935

FC(F)(F)c1ccc(-c2ncn(CCCN3CCOCC3)c2-c2ccncc2)cc1 [SB-217780]
fold change in fluorescence relative to zaprinast alone: 0.91

Nc1nccc2scc(-c3ccc4c(c3)CCN4C(=O)Cc3ccccc3)c12 [GSK2576924A]
fold change in fluorescence relative to zaprinast alone: 0.9278

c1ccc(Oc2ccc(Nc3ccnc4cc(-c5ccc(CN6CCNCC6)o5)ccc34)cc2)nc1 [GW567142A]
fold change in fluorescence relative to zaprinast alone: 0.8742

COC(=O)Nc1nc2cc(Oc3ccc(NC(=O)Nc4cccc(C(=O)O)c4)cc3)ccc2[nH]1 [GW701427A]
fold change in fluorescence relative to zaprinast alone: 1.188

COc1ccc2cc(-c3c(-c4ccncc4)nc(-c4ccc(S(C)(=O)=O)cc4C)n3C)ccc2c1 [SB-633825]
fold change in fluorescence relative to zaprinast alone: 0.9532

COc1cccc(-c2nc(-c3ccccc3)[nH]c2-c2ccncc2)c1 [SB-610250]
fold change in fluorescence relative to zaprinast alone: 0.7579

O=C(NCCNc1ccnc(Nc2ccc(F)cc2)n1)c1cc2ccccc2s1 [GSK1379874A]
fold change in fluorescence relative to zaprinast alone: 0.6895

COc1cc2ncn(-c3cc(O[C@@H](C)c4ccccc4Cl)c(C(N)=O)s3)c2cc1OC [GSK237700A]
fold change in fluorescence relative to zaprinast alone: 1.147

CCS(=O)(=O)c1ccc(OC)c(Nc2ncc(-c3cccc(-c4ccccc4F)c3)o2)c1 [GW678313X]
fold change in fluorescence relative to zaprinast alone: 1.071

NS(=O)(=O)c1cccc(N/C=C2\C(=O)Nc3ccccc32)c1 [GW275616X]
fold change in fluorescence relative to zaprinast alone: 0.9797

COc1ccc(-c2oc3ncnc(N)c3c2-c2ccc(OC)cc2)cc1 [SB-589132]
fold change in fluorescence relative to zaprinast alone: 1.026

CNC(=O)Oc1cc(C)c(/C=C/c2cncc(C(=O)NC)c2)c(C)c1 [GW432441X]
fold change in fluorescence relative to zaprinast alone: 1.157

O=C1NC(=O)C(c2ccccc2Cl)=C1Nc1cccc(O)c1 [SB-390527]
fold change in fluorescence relative to zaprinast alone: 1.108

O=C(O[C@H]1CN[C@H](C#Cc2cc3ncnc(Nc4ccc5c(cnn5Cc5ccccc5)c4)c3s2)C1)N1CCOCC1 [GSK200398A]
fold change in fluorescence relative to zaprinast alone: 1.169

NCC(NCc1ccc(-c2ccnc3[nH]ccc23)s1)c1ccccc1 (centres unmarked) [GSK1321565A]
fold change in fluorescence relative to zaprinast alone: 0.4604

Cc1ccc(C(=O)NC2CCCC2)cc1-c1ccc(C(=O)NCC2CC2)cc1 [GW800172X]
fold change in fluorescence relative to zaprinast alone: 1.109

CCn1c(-c2ccoc2)nc2cnccc21 [SB-733887]
fold change in fluorescence relative to zaprinast alone: 1.127

COc1cccc(-n2ncc3c(N/N=C/c4ccc(F)cc4)ncnc32)c1 [GW817396X]
fold change in fluorescence relative to zaprinast alone: 1.185

COc1cc(N2CCN(C(C)C)CC2)ccc1Nc1nc(Nc2ccc(F)cc2C(N)=O)c2cc[nH]c2n1 [GSK1220512A]
fold change in fluorescence relative to zaprinast alone: 1.812

CCn1c(-c2nonc2N)nc2ccncc21 [SB-738561]
fold change in fluorescence relative to zaprinast alone: 1.114

O=C(Nc1n[nH]c2nc(-c3nccs3)c(Br)cc12)C1CC1 [SB-742251]
fold change in fluorescence relative to zaprinast alone: 1.325

CCNc1nccc(-c2c(-c3ccc(F)cc3)ncn2C2CCN(C)CC2)n1 [SB-226605]
fold change in fluorescence relative to zaprinast alone: 0.6067

O=C(Nc1n[nH]c2nc(-c3ccc(O)cc3)ccc12)C1CC1 [SB-710363]
fold change in fluorescence relative to zaprinast alone: 1.137

CN(c1ccc(NC(=O)Nc2ccc(OC(F)(F)F)cc2)cc1)c1ccnc(Nc2cccc(S(N)(=O)=O)c2)n1 [GW806742X]
fold change in fluorescence relative to zaprinast alone: 0.4394

Cc1ccc(NC(=O)Nc2ccc(Cl)c(C(F)(F)F)c2)cc1-c1ccc(C(=O)Nc2ccncc2)cc1 [GSK1398470A]
fold change in fluorescence relative to zaprinast alone: 0.581

CNC(=O)c1ncccc1Nc1nc(Nc2cc3c(cc2OC)CCCN3C(=O)CN(C)C)nc2[nH]ccc12 [GSK2220400A]
fold change in fluorescence relative to zaprinast alone: 1.127

COc1cc2ncn(-c3cc(OCc4sccc4Cl)c(C(N)=O)s3)c2cc1OC [GSK448459A]
fold change in fluorescence relative to zaprinast alone: 1.439

Cc1ccc(C(=O)Nc2ccc(Nc3ccnc4cc(-c5ccccn5)ccc34)cc2O)cc1 [GW440146A]
fold change in fluorescence relative to zaprinast alone: 2.166

Cc1cc(-c2ccnc(Nc3cccc(C#N)c3)n2)cc(C)c1O [GSK1440913A]
fold change in fluorescence relative to zaprinast alone: 0.3868

Cn1cc(-c2ccc3c(c2)CCN3C(=O)Cc2ccccc2Cl)c2c(N)ncnc21 [GSK2608885A]
fold change in fluorescence relative to zaprinast alone: 1.437

Cc1ccc(NC(=O)Nc2cc(C(C)(C)C)nn2-c2ccccc2)cc1 [GSK1014915A]
fold change in fluorescence relative to zaprinast alone: 0.9452

CCn1c(-c2nonc2N)nc2cncc(Br)c21 [SB-738004]
fold change in fluorescence relative to zaprinast alone: 0.8309

CNc1nc(-c2ccc3c(N)n[nH]c3c2)cc(N2C[C@@H](C(=O)NC3CCCCC3)OC[C@H]2C)n1 [GSK2375584A]
fold change in fluorescence relative to zaprinast alone: 1.379

Oc1cccc(Nc2ccnc3cc(-c4ccncc4)ccc23)c1 [GW494601A]
fold change in fluorescence relative to zaprinast alone: 1.032

O=C(Nc1cccc(-c2nn3ncccc3c2-c2ccnc(Nc3cccc(C(F)(F)F)c3)n2)c1)c1c(F)cccc1F [GSK299495A]
fold change in fluorescence relative to zaprinast alone: 1.22

NC(=O)Cc1ccccc1Oc1nccc(-c2c(-c3ccc(F)cc3)ncn2C2CCNCC2)n1 [SB-264865]
fold change in fluorescence relative to zaprinast alone: 1.313

CC(C)N1CCC(n2cnc(-c3ccc(F)cc3)c2-c2ccnc(N)n2)CC1 [SB-223132]
fold change in fluorescence relative to zaprinast alone: 0.4026

COC(=O)c1cncc(/C=C/c2c(C)cc(O)cc2C)c1 [GW406731X]
fold change in fluorescence relative to zaprinast alone: 0.8759

CCNC(=O)O[C@H]1CN[C@H](C#Cc2cc3ncnc(Nc4ccc(OCc5cccc(F)c5)c(Cl)c4)c3s2)C1 [GSK192082A]
fold change in fluorescence relative to zaprinast alone: 1.213

c1ccc(-c2ccnc3[nH]ccc23)cc1 [SB-693578]
fold change in fluorescence relative to zaprinast alone: 1.319
